{"source": "paper PMC9401498", "about": "(Clinical Cancer Research, 2021)", "key": {"[1]": {"system": "tumor cell lines", "details": "preclinical, several tumor cell lines; cited from earlier work"}, "[2]": {"system": "glutamine", "test": "Plasma glutamine concentration", "format": "in vivo, human", "details": "cycle 1, day 15 relative to predose on cycle 1, day 1; P = 0.0073; n = 6"}, "[3]": {"system": "advanced and/or treatment-refractory solid tumors", "test": "Antitumor activity by RECIST v1.1, all solid tumors", "format": "in vivo, human"}, "[4]": {"system": "renal cell carcinoma (RCC)", "test": "Antitumor activity by RECIST v1.1, RCC cohorts", "format": "in vivo, human"}, "[5]": {"system": "solid tumor xenograft mouse models", "details": "preclinical, e.g., RCC, NSCLC, TNBC, hematologic malignancies; alone and in combination; cited from earlier work"}, "[6]": {"details": "All dose expansion (N = 58), number (percent) of efficacy evaluable patients"}, "[7]": {"details": "All RCC (n = 28), number (percent) of efficacy evaluable patients"}}}
{"compound": "O=C(Cc1cccc(OC(F)(F)F)c1)Nc1ccc(CCCCc2nnc(NC(=O)Cc3ccccn3)s2)nn1", "note": "[telaglenastat, Telaglenastat]", "values": [{"measurement": "antiproliferative activity", "setting": "[1]", "result": "cytostatic and cytotoxic antiproliferative activity"}, {"measurement": "increase in plasma glutamine", "setting": "[2]", "result": "approximately 150%"}, {"measurement": "Best overall response: Partial response", "setting": "[3]; [6]", "result": "1 (1.7)"}, {"measurement": "Best overall response: Progressive disease", "setting": "[3]; [6]", "result": "33 (56.9)"}, {"measurement": "Best overall response: Stable disease", "setting": "[3]; [6]", "result": "24 (41.4)"}, {"measurement": "objective responses", "setting": "[3]; BID or TID dose escalation cohorts", "result": "No objective responses"}, {"measurement": "patients with time on study ≥6 months", "setting": "[3]; SDs across different tumor types", "result": 12, "unit": "patients"}, {"measurement": "patients with PR", "setting": "[3]; dose expansion (in an RCC patient)", "result": "1/58"}, {"measurement": "patients with SD", "setting": "[3]; dose expansion, 24/58", "result": 41.4, "unit": "%"}, {"measurement": "patients with PD", "setting": "[3]; dose expansion, 33/58", "result": 56.9, "unit": "%"}, {"measurement": "Disease control rate (DCR)", "setting": "[4]; 28 evaluable patients with RCC in both dose escalation and dose expansion, 14/28", "result": 50, "unit": "%"}, {"measurement": "Best overall response: Partial response", "setting": "[4]; [7]", "result": "1 (3.6)"}, {"measurement": "Best overall response: Progressive disease", "setting": "[4]; [7]", "result": "14 (50.0)"}, {"measurement": "Best overall response: Stable disease", "setting": "[4]; [7]", "result": "13 (46.4)"}, {"measurement": "reduction in target lesions", "setting": "[4]; clear cell RCC patient with PR (800 mg BID)", "result": 32, "unit": "%"}, {"measurement": "patients with RCC remaining on study for more than 10 months", "setting": "[4]; in vivo", "result": "Four"}, {"measurement": "time on study", "setting": "[4]; one clear cell patient with RCC", "result": "> 2.4", "unit": "years"}, {"measurement": "overall response rate", "setting": "[4]; renal cell carcinoma", "result": 5, "unit": "%"}, {"measurement": "effect on tumor growth", "setting": "[5]", "result": "cytostatic-suppressive effects against tumor growth"}]}
